Measurements: patent US20120046353A1 (priority 2010, published 2012)

Biological target: neuraminidase of Tamiflu-resistant novel influenza virus (point mutation H→Y) (Influenza A virus, UniProt C3W5S3, H275Y)

SMILES | Inhibitory activity against neuraminidase of Tamiflu-resistant novel influenza virus, in words
COc1c(C)c(O)c(C)c(O)c1C(=O)/C=C/c1ccccc1O [Compound 14, 2,2′,4′-trihydroxy-6′-methoxy-3′,5′-dimethylchalcone] | excellent inhibitory activity
COc1cc(O)c(C)c(O)c1C(=O)/C=C/c1ccccc1 [Compound 8, 2′,4′-dihydroxy-3′-methyl-6′-methoxychalcone] | excellent inhibitory activity
COc1c(C)c(O)c(C)c(O)c1C(=O)/C=C/c1ccc(O)cc1 [Compound 4, 4,2′,4′-trihydroxy-6′-methoxy-3′,5′-dimethylchalcone] | excellent inhibitory activity
COc1c(C)c(O)c(C)c(O)c1C(=O)/C=C/c1ccccc1 [Compound 5, 2′,4′-dihydroxy-6′-methoxy-3′,5′-dimethylchalcone] | excellent inhibitory activity
